According to patent publication US20130287890A1, “INHIBITOR OF THE PRODUCTION OF ADVANCED GLYCATION END PRODUCTS” (UENO FINE CHEMICALS INDUSTRY, LTD., priority 2012, published 2013):

Experiments:
CML = assay: Quantitative determination of CML after reaction at 37° C. for 42 days; format: biochemical; details: for CML: 37° C., 42 days
Procedure: (§1) Amino acid, carbohydrates and a phosphate buffer solution were charged in a 50 mL polypropylene centrifuge tube in each amount shown in Table 10, followed by sealing and stirring, and then the mixture was reacted in an incubator at 37° C. for 42 days. Next, the reactant was filtered through a 0.2 μm filter and the obtained filtrate was used as a sample. Amino acid and carbohydrates used are as follows:
Using CircuLex CML/Nε-(carboxymethyl) lysine ELISA kit (manufactured by CycLex Co., Ltd.), quantitative determination of CML was performed in the following manner. Thirty (30) or more minutes before use, reagents and CML solid-phase wells were put to room temperature. By adding 1 mL of ultrapure water (Milli-Q water) to a CML-HSA standard powder, a master standard was prepared. By performing dilution with standard dilution buffers, standards 1 to 7 were prepared. The sample was diluted as necessary with sample dilution buffers. A CML-HSA standard and 60 μL of the sample were dispensed into a 96-well plate, which is not an accessory to the kit. Next, ultrapure water (Milli-Q water) was added to a first antibody powder, and by diluting with sample dilution buffers, a first antibody solution was prepared; 60 μL of the antibody solution was dispensed into the plate and mixed. After 100 μL of the mixture was added to CML solid-phase wells, the mixture was reacted at 25° C. for 1 hour while being shaken at 300 rpm. Then, the reaction solution was discarded, and 350 μL of rinsing fluid was dispensed to wash the plate. The washing was performed for 4 times. After liquid on the plate was removed, 100 μL of a second antibody solution was dispensed and reacted at 25° C. for 1 hour while being shaken at 300 rpm. The reaction solution was discarded, and the plate was washed for 4 times with 350 μL of rinsing fluid again. Liquid on the plate was removed, and 100 μL of a color coupler was dispensed. Then, the solution was left to stand for 10 minutes under a light shielding condition while being shaken at 300 rpm. Finally, 100 μL of a reaction stop solution was dispensed, and within 30 minutes after the dispensing, measurement was performed at main wavelength 450 nm/reference wavelength 595 nm using a micro-plate reader. The concentration of CML was determined using the calibration curve of a CML standard solution, based on measurement values of the sample.
(§2) Biological proteins, carbohydrates and a phosphate buffer solution are charged in a 50 mL polypropylene centrifuge tube in each amount shown in Table 12, followed by sealing and stirring, and then the mixture was reacted in an incubator at 37° C. for 42 days. Next, the reactant was fractionated by centrifugation at 3,000 rpm for 3 hours using an ultrafiltration unit (VIVA SPIN 20, manufactured by Sartorius Corporation). The obtained low molecular weight fraction was used as a sample for determination of 3-DG, while the obtained high molecular weight fraction was used as a sample for the determination of fluorescent AGEs, pentosidine, CML, RAGE agonist activity and RAGE antagonist activity. Biological proteins and carbohydrates used are as follows:
In the same manner as in Test Example 4, except that the low molecular weight fraction prepared as mentioned above was used as a sample, quantitative determination of 3-DG was performed. In the same manner as in Test Example 4, except that the high molecular weight fraction was filtered through a 0.2 μm filter and the filtrate was used as a sample, fluorescent AGEs, pentosidine, CML, RAGE agonist activity and RAGE antagonist activity were evaluated.
Collagen, carbohydrates and a phosphate buffer solution were charged in a 50 mL polypropylene centrifuge tube in each amount shown in Table 14, followed by sealing and stirring, and then the mixture was reacted in an incubator at 37° C. for 42 days. […]

fluorescent AGEs = assay: Quantitative determination of fluorescent AGEs after reaction at 37° C. for 42 days; format: biochemical; details: for Fluorescent AGEs: 37° C., 42 days
Procedure: After 0.4 g of a high molecular weight fraction and 8 mL of 6N hydrochloric acid were charged in an ampule and the air in the ampule was replaced with nitrogen, hydrolysis was performed at 110° C. for 16 hours in a heat block. After reaction, 8 mL of 5N sodium hydroxide was added, and pH was adjusted using 1N hydrochloric acid and 1N sodium hydroxide to make pH within a range of 7.2 to 7.6. Then, the solution was filtered through a 0.45 μm filter. Using the thus obtained filtrate as a sample, fluorescent AGEs were quantitatively determined using the following methods. After weighing 2.5 mg of a standard substance perylene, the standard substance perylene was fully dissolved in 10 mL of deaerated ethanol added thereto to prepare a perylene solution. The perylene solution diluted to the concentration of 10 μM was exposed to excitation light with a wavelength of 386 nm and then the area was calculated by measuring a fluorescence intensity ranging from 410 to 600 nm. Meanwhile, the sample was exposed to excitation light with a wavelength of 380 nm and then the area was calculated by measuring a fluorescence intensity ranging from 400 to 600 nm. By considering the area measurement value of the sample as a value relative to the area value of the 10 μM perylene solution, fluorescent AGEs were determined.
as §2, with “Amino acid or biological protein, carbohydrates” for “Biological proteins, carbohydrates”, “solution were” for “solution are”, “Table 8,” for “Table 12,”, “fluorescent AGEs. Amino acid, biological protein” for “fluorescent AGEs, pentosidine, CML, RAGE agonist activity and RAGE antagonist activity. Biological proteins”
In the same manner as in Test Example 1, except that the low molecular weight fraction prepared as mentioned above was used as a sample, quantitative determination of 3-DG was performed. In the same manner as in Test Example 2, except that the high molecular weight fraction prepared as mentioned above was used as a sample, determination of fluorescent AGEs was performed.
as §1
After weighing 2.5 mg of a standard substance perylene, the standard substance perylene was fully dissolved in 50 mL of deaerated ethanol added thereto to prepare a perylene solution. The perylene solution diluted to the concentration of 10 μM was exposed to excitation light with a wavelength of 386 nm and then the area was calculated by measuring a fluorescence intensity ranging from 410 to 600 nm. Meanwhile, the sample was exposed to excitation light with a wavelength of 380 nm and then the area was calculated by measuring a fluorescence intensity ranging from 400 to 600 nm. By considering the area measurement value of the sample as a value relative to the area value of the 10 μM perylene solution, fluorescent AGEs were quantitatively determined.
Biological proteins, carbohydrates and a phosphate buffer solution are charged in a 50 mL polypropylene centrifuge tube in each amount shown in Table 12, followed by sealing and stirring, and then the mixture was reacted in an incubator at 37° C. for 42 days. Next, the reactant was fractionated by centrifugation at 3,000 rpm for 3 hours using an ultrafiltration unit (VIVA SPIN 20, manufactured by Sartorius Corporation). […]

[1] = Test Example 4, amino acid 0.4 g + carbohydrate 1.8 g
[2] = Test Example 5, bovine serum albumin 0.4 g + carbohydrate 1.8 g
[3] = Test Example 5, human serum albumin 0.4 g + carbohydrate 1.8 g
[4] = Test Example 5, γ-globulin 0.4 g + carbohydrate 1.8 g
[5] = Test Example 6, collagen 0.015 g + carbohydrate 1.8 g, hydrolysed high molecular weight fraction
[6] = Test Example 3, amino acid (lysine:arginine 1:1) 0.4 g + glucose 1.8 g or maltitol 3.4 g
[7] = Test Example 3, bovine serum albumin 0.4 g + glucose 1.8 g or maltitol 3.4 g
[8] = Test Example 4, amino acid, compared with sections containing glucose and fructose
[9] = Test Example 5, bovine serum albumin, human serum albumin, γ-globulin, compared with sections containing fructose
[10] = Test Example 5, bovine serum albumin, human serum albumin, γ-globulin, compared with sections containing glucose
[11] = Test Example 6, collagen, compared with sections containing glucose and fructose

In the case of `O=C(CO)[C@@H](O)[C@H](O)[C@H](O)CO` [Fructose], the CML (CML; [1]) is reported as 519 nmol/1 mL of reaction solution, the CML (CML; [2]) is reported as 1046 nmol/1 mL of reaction solution and the CML (CML; [3]) is reported as 4626 nmol/1 mL of reaction solution. For the same compound, the CML (CML; [4]) was 3813 nmol/1 mL of reaction solution, the CML (CML; [5]) was 452 nmol/1 mL of reaction solution and the “Fluorescent AGEs” value (fluorescent AGEs; [1]) was 11.4 nmol/1 mL of reaction solution. The “Fluorescent AGEs” value (fluorescent AGEs; [2]) was 28 nmol/1 mL of reaction solution, the “Fluorescent AGEs” value (fluorescent AGEs; [3]) was 25.2 nmol/1 mL of reaction solution and the “Fluorescent AGEs” value (fluorescent AGEs; [4]) was 17.3 nmol/1 mL of reaction solution. For the same compound, the “Fluorescent AGEs” value (fluorescent AGEs; [5]) was 2.4 nmol/1 mL of reaction solution.

In the case of `O=C[C@H](O)[C@@H](O)[C@H](O)[C@H](O)CO` [Glucose], the CML (CML; [1]) is reported as 1197 nmol/1 mL of reaction solution, the CML (CML; [2]) is reported as 309 nmol/1 mL of reaction solution and the CML (CML; [3]) is reported as 1749 nmol/1 mL of reaction solution. For the same compound, the CML (CML; [4]) was 3628 nmol/1 mL of reaction solution, the CML (CML; [5]) was 475 nmol/1 mL of reaction solution and the “Fluorescent AGEs” value (fluorescent AGEs; [6]) was 91 nmol/1 g of protein. For the same compound, the “Fluorescent AGEs” value (fluorescent AGEs; [7]) was 46 nmol/1 g of protein, the “Fluorescent AGEs” value (fluorescent AGEs; [1]) was 17.4 nmol/1 mL of reaction solution and the “Fluorescent AGEs” value (fluorescent AGEs; [2]) was 11 nmol/1 mL of reaction solution. For the same compound, the “Fluorescent AGEs” value (fluorescent AGEs; [3]) was 8.6 nmol/1 mL of reaction solution, the “Fluorescent AGEs” value (fluorescent AGEs; [4]) was 3.0 nmol/1 mL of reaction solution and the “Fluorescent AGEs” value (fluorescent AGEs; [5]) was 1.4 nmol/1 mL of reaction solution.

In the case of `OC[C@@H](O)[C@@H](O[C@H]1O[C@H](CO)[C@@H](O)[C@H](O)[C@H]1O)[C@H](O)[C@@H](O)CO` [Maltitol], the “Fluorescent AGEs” value (fluorescent AGEs; [6]) is reported as 2 nmol/1 g of protein, the “production of AGEs” value (fluorescent AGEs; Test Example 3, amino acids and bovine serum albumin, compared with sections containing glucose) is reported as “decreased” and the “Fluorescent AGEs” value (fluorescent AGEs; [7]) is reported as 7 nmol/1 g of protein.

`OC[C@@H](O)[C@@H](O)[C@H](O)[C@@H](O)CO` [Sorbitol] was tested, and the CML (CML; [1]) was 57 nmol/1 mL of reaction solution, the “production of CML” value (CML; [8]) was “decreased” and the CML (CML; [2]) was 10 nmol/1 mL of reaction solution. The “production of CML” value (CML; [9]) was “decreased”, the “production of CML” value (CML; [10]) was “decreased” and the CML (CML; [3]) was 69 nmol/1 mL of reaction solution. For the same compound, the CML (CML; [4]) was 29 nmol/1 mL of reaction solution, the CML (CML; [5]) was 445 nmol/1 mL of reaction solution and the “production of CML” value (CML; [11]) was “decreased”. For the same compound, the “Fluorescent AGEs” value (fluorescent AGEs; [1]) was 0.4 nmol/1 mL of reaction solution, the “production of fluorescent AGEs” value (fluorescent AGEs; [8]) was “decreased” and the “Fluorescent AGEs” value (fluorescent AGEs; [2]) was 2.0 nmol/1 mL of reaction solution. For the same compound, the “production of fluorescent AGEs” value (fluorescent AGEs; [9]) was “decreased”, the “production of fluorescent AGEs” value (fluorescent AGEs; [10]) was “decreased” and the “Fluorescent AGEs” value (fluorescent AGEs; [3]) was 5.4 nmol/1 mL of reaction solution. The “Fluorescent AGEs” value (fluorescent AGEs; [4]) was 1.3 nmol/1 mL of reaction solution, the “Fluorescent AGEs” value (fluorescent AGEs; [5]) was 0.5 nmol/1 mL of reaction solution and the “production of fluorescent AGEs” value (fluorescent AGEs; [11]) was “decreased”.
